Reference: US8022043B2, “Ceramide derivatives as modulators of immunity and autoimmunity” (Albert Einstein College of Medicine of Yeshiva University, priority 2004, dated 2011)

What was measured:
C57BL/6 mice = test: Serum IL-4 and IFNγ after a single i.p. injection; format: in vivo
Procedure: Serum levels of L-4 and IFNγ after a single injection of DB01-1, DB03-4, or DB03-5 are shown. C57BL/6 mice (11-13 weeks old) were given a single i.p. injection of 4.8 nanomoles of the compounds or phosphate buffered saline (PBS)/vehicle control. Serum cytokine levels were measured 2 and 20 hours later by capture ELISA. Bars show means of three mice, with standard deviation. Note that DB01-1 has nearly identical structure to KRN7000 (C24 fatty acid as compared to C26) and has activity that is indistinguishable from KRN7000 in multiple bioassays. We use DB01-1 as a “KRN7000 mimic” because it has been synthesized by our group and is readily available for our studies, and KRN7000 was unavailable due to license restrictions.
A most intriguing property of KRN7000 analogues is that in some cases they may elicit immune responses that are qualitatively different from those that occur following stimulation with the parent compound. […] This selective activation of IL-4 production by NK T cells was proposed to be the basis for the enhanced therapeutic effects of OCH in the EAE model of central nervous system autoimmune disease. We have observed a similar in vivo effect on the nature of the NK T cell response using several of our ceramide-like glycolipids. […] These responses are similar to those seen for DB01-1, an analogue that is structurally almost identical to KRN7000 (C24 fatty acid instead of C26, otherwise identical) and indistinguishable in terms of its activity in our hands. […] This selective IL-4 induction is virtually identical to that reported for the OCH analogue, and thus illustrates the potential for amino substituted analogues of KRN7000 to induce qualitatively different immunomodulatory effects in vivo. The results reported in FIG. 9 were obtained by measuring serum levels of IL-4 and IFNγ after administering a single injection of […], DB03-4, or DB03-5 to C57BL/6 mice. C57BL/6 mice (11-13 weeks old) were given a single i.p. injection of 4.8 nanomoles of the ceramide-like glycolipids or PBS/vehicle control. Serum cytokine levels were measured 2 and 20 hours later by capture ELISA. Bars show means of three mice, with standard deviation.
For experiments involving in vivo treatment of mice with the ceramide-like glycolipids, the ceramide-like glycolipids were administered by i.p. or i.v. injection in 0.2 ml PBS+0.025% Tween-20, or in vehicle alone. A typical dose is about 4-5 nmoles per animal per injection. Representative references for administering an α-galactosyl ceramide to mice by i.p., i.v. or p.o. routes are S. Sharif et al., Activation of natural killer T cells by alpha-galactosylceramide treatment prevents the onset and recurrence of autoimmune Type 1 diabetes, Nat. Med., Sep. 7, 2001, (9):1057-62 and K. Miyamoto et al., A synthetic glycolipid prevents autoimmune encephalomyelitis by inducing TH2 bias of natural killer T cells, Nature. Oct. 4, 2001, 413(6855):5314.

NOD mice [1] = test: Prevention of type 1 diabetes in NOD mice; format: in vivo; conditions: i.p. once per week, 200 micrograms/kg; comparator DB01-1 (indicated as KRN7000)
Procedure: Cohorts of 6-8 female NOD mice were treated with placebo (vehicle) or DB01-1 (indicated as KRN7000), DB03-4 or DB03-5 injections once weekly beginning at 4-5 weeks of age. Treatment was discontinued after 5 injections (DB03-4) or 7 injections (DB03-5). Top graphs show incidence of glycosuria, and bottom graphs show survival in each cohort.
Given the widely held belief that selective augmentation of IL-4 production can be protective or therapeutic in the setting of many autoimmune diseases, we have initiated studies to examine the efficacy of compounds such as DB03-4 and DB03-5 in diabetes prone NOD mice. […] The results reported in FIG. 10 were obtained by treating three groups, each consisting of 9-12 female NOD mice, starting from age 5 weeks with a ceramide-like glycolipid. The indicated ceramide-like glycolipids (DB03-4, DB03-5, or KRN7000) were injected i.p. once per week in a dose of 200 micrograms/kg. Treatment was discontinued at 11 weeks of age, and the mice were monitored weekly for glucosuria (top) and death (bottom).
For experiments involving in vivo treatment of mice with the ceramide-like glycolipids, the ceramide-like glycolipids were administered by i.p. or i.v. injection in 0.2 ml PBS+0.025% Tween-20, or in vehicle alone. A typical dose is about 4-5 nmoles per animal per injection. […]

iNKT cells = test: In vitro cytokine modulation, murine cell assay system; format: cell-based; conditions: for in vitro activity at modulating cytokines: murine cell assay system
Source text: The term iNKT cells, as used herein, mean the specific subset of CD1d-dependent T cells that expresses the invariant TCRα chain rearrangement consisting of Vα14-Jα18 in mice, and Vα24-Jα18 in humans. These cells are uniformly reactive to α-galactosylceramides presented by CD1d. These cells are also referred to as “Type 1” NKT cells, and the distinction between the different types of NKT cells and the nomenclature relating to this are summarized in the publication by Godfrey et al., Nat Rev Immunol. 2004 March; 4(3):231-7. Methods for determining cytokine production by iNKT cells in response to CD1d-presented glycolipids for determination of strong or weak agonist activity are described in Yu K O A, Im J S, Molano A, Dutronc Y, Illarionov P A, Forestier C, Fujiwara N, Arias I, Miyake S, Yamamura T, Chang Y-T, Besra G S, Porcelli S A, Modulation of CD1d-restricted NKT cell responses using N-acyl variants of α-galactosylceramides, Proc. Nat. Acad. Sci. (USA), 102:3383-8 (2005), see also Godfrey D I et al., Nat Rev Immunol. 2004 March; 4(3):231-7.

human NKT cell clones = test: Human in vitro NKT cell assay system; format: cell-based; conditions: proliferative responses and cytokine secretion
Source text: For example, DB03-4 and DB03-5 are active in stimulation of human NKT cell clones in vitro, and elicits proliferative responses and cytokine secretion when evaluated using culture systems previously established in the literature (See, e.g., Spada F M, Sugita M, Watts G F M, Koezuka Y, and Porcelli S A. Low expression but potent antigen presenting function of CD1d on monocyte lineage cells, Eur. J. Immunol., 30:3468-3477 (2000), and Spada F M, Koezuka Y, Porcelli S A, CD1d-restricted recognition of synthetic glycolipid antigens by human NK T cells. J Exp Med; 188:1529-1534 (1998), see also, Lee P T et al., J Clin Invest., 2002 September; 110(6):793-800. […] Acad. Sci. (USA), 102:3383-8 (2005)).

[2] = test system: T cell antigen receptors of human NKT cells; test: Glycolipid human CD1d tetramer binding; conditions: normal blood specimens
NOD mice [3] = conditions: twice weekly injection from 4 weeks of age, reduction from 75%; cited from earlier work
NK T hybridoma DN3A4.1-2 = test: Upregulation of CD40L (CD154), FACS; format: cell-based, mouse; conditions: 0.5 uM glycolipid, 18 hours, RMA-S/CD1d cells
Procedure: The upregulation of CD40L by ceramide-like glycolipids reported in FIG. 11 were obtained by incubating NK T hybridoma DN3A4.1-2 with RMA-S/CD1d cells at a ratio of 2:1 in the presence of 0.5 uM of ceramide-like glycolipid for 18 hours. Cells were then resuspended and labeled with mAbs specific for CD5 and CD40L. Levels of CD40L were determined by FACS analysis of the population gated for CD5 staining.

NZB/W-F1 mice = test: SLE in NZB/W-F1 mice; format: in vivo
mice = conditions: administered in vivo to mice; cited from earlier work
[4] = test system: mouse model of experimental allergic encephalomyelitis (EAE); conditions: compared with KRN7000; cited from earlier work
NK T hybridoma DN32.D3 [5] = test: Murine NK T cell hybridoma stimulation assay (IL-2 release), RMA-S.mCD1d as APC; format: cell-based, mouse; conditions: presented by RMA-S/CD1d cells
Procedure: FIG. 5. […] NK T hybridoma DN32.D3 was cultured with CD1d-transfected RMA-S cells in microtiter plate wells. Each ceramide-like glycolipid was titrated over a concentration range from 0.5-500 nM, and supernatants were harvested after 24 hours for measurement of IL-2 release. Units of activity were calculated as the reciprocal of the concentration of ceramide-like glycolipid required to give a half maximal release of IL-2, and all values were normalized to the activity of KRN7000 (defined as 1 Unit). The dotted line indicates the level of activity for KRN7000. The structures of two ceramide-like glycolipids with markedly elevated activity relative to KRN7000 are shown.
The ability of the compounds to activate NK T cell hybridomas in the presence of various types of cells expressing CD1d reported in FIG. 5A was determined using a murine NK T cell hybridoma stimulation assay. […] Relative potencies of the ceramide-like glycolipids were calculated from the reciprocal effective concentrations at half-maximal response (1/EC50), and expressed as units by normalization to the observed potency for KRN7000.
IL-2 production by NK T hybridoma DN32D3 in response to eight selected ceramide-like glycolipids, was determined using three different cell types as antigen presenting cells. […]

NK T hybridoma DN32.D3 [6] = test: Murine NK T cell hybridoma stimulation assay (IL-2 release), HeLa.hCD1d as APC; format: cell-based, mouse; conditions: presented by HeLa (human CD1d) cells
Procedure: (§1) The ability of the compounds to activate NK T cell hybridomas in the presence of various types of cells expressing CD1d reported in FIG. 5A was determined using a murine NK T cell hybridoma stimulation assay. CD1d-transfected RMA-S cells were plated at 50,000 cells/well in flat-bottom tissue culture plates in 100 microliters complete medium containing varying concentrations of ceramide-like glycolipids for 6 h at 37° C. The plates were then centrifuged (430 g, 3 min), and cells washed with PBS three times. Fifty thousand NKT hybridoma cells (clone DN3A4.1-2) were then added in 100 microliters of medium for a 12 h stimulation. Cell-free supernatants were collected at the end of incubation and assayed for IL-2 by standard capture ELISA. Relative potencies of the ceramide-like glycolipids were calculated from the reciprocal effective concentrations at half-maximal response (1/EC50), and expressed as units by normalization to the observed potency for KRN7000.
(§2) IL-2 production by NK T hybridoma DN32D3 in response to eight selected ceramide-like glycolipids, was determined using three different cell types as antigen presenting cells. RMA-S.mCD1d are a mouse lymphoma line that has been transfected to express murine CD1d. JAWS II is a mouse dendritic cell line that naturally expresses mouse CD1d. HeLa.hCD1d is a human cervical carcinoma cell line that has been transfected to express human CD1d. […]

NK T hybridoma DN32.D3 [7] = test: Murine NK T cell hybridoma stimulation assay (IL-2 release), JAWS II as APC; format: cell-based, mouse; conditions: dendritic cell line JAWS-II as antigen presenting cell
Procedure: as §1, §2

NK T cells = test: NK T cell activation screens (Example, FIG. 5 and Table 1); format: cell-based; conditions: see Example
Source text: Using these methods, we produced more than 60 novel amino substituted analogues of KRN7000. These were screened in a functional assay that assessed the ability of the compounds to activate NK T cell hybridomas in the presence of various types of cells expressing CD1d, or in the presence of recombinant CD1d proteins bound to the tissue culture plate surface (FIG. 5).

For `CCCCC/C=C\C/C=C\C/C=C\C/C=C\CCCC(=O)N[C@@H](COC1OC(CO)C(O)C(O)C1O)[C@H](O)[C@H](O)CCCCCCCCCCCCCC` (some centres unmarked) [DB03-5], which “serum IFNγ response” value (C57BL/6 mice; 20 hours after single i.p. injection of 4.8 nanomoles) is on record?
The value was “not seen”.

And the “serum IL-4 response” value (C57BL/6 mice; two hours after single i.p. injection of 4.8 nanomoles)?
Its value is “strong IL-4 response”.

And the “prevention of diabetes in NOD mice compared with KRN7000” value (NOD mice [1])?
Its value is “superior to KRN7000”.

What about the cytokine bias (iNKT cells) of the same compound?
Its cytokine bias is “bias towards inducing Type 2 cytokines”.

What about the IL-4 induction (iNKT cells; in vitro) of the same compound?
Its IL-4 induction is “strong inducers of IL-4”.

What about the IFNγ induction (iNKT cells; in vitro, DB03-3: in some murine strains) of the same compound?
The IFNγ induction was “blunted IFNγ”.

What about the “in vitro activity at modulating cytokines” value (iNKT cells) of the same compound?
The value was “show in vitro activity”.

And the “stimulation of human NKT cell clones” value (human NKT cell clones)?
The value was “active”.

What about the “binding of glycolipid human CD1d tetramers to human NKT cells” value [2] of the same compound?
Its value is “bind strongly”.

With `CCCCCCCCCCCCCCCCCCCCCCCCCC(=O)N[C@@H](CO[C@H]1O[C@H](CO)[C@H](O)[C@H](O)[C@H]1O)[C@H](O)[C@H](O)CCCCCCCCCCCCCC` [KRN7000, (2S,3S,4R)-1-O-(α-D-galactopyranosyl)-N-hexacosanoyl-2-amino-1,3,4-octadecanetriol] as the compound, how does the incidence of diabetes (NOD mice [3]) read?
Its incidence of diabetes is “approximately 5%”.

Which results are given for `CCCCCCCCCCCCCCCCCCCCCCCC(=O)N[C@@H](CO[C@@H]1OC(C)[C@@H](O)[C@H](O)C1O)[C@H](O)[C@H](O)CCCCCCCCCCCCCC` (some centres unmarked) [DB03-8]?
CD40L expression (NK T hybridoma DN3A4.1-2): capable of inducing CD40L; effect on SLE (NZB/W-F1 mice): exacerbates SLE; agonist activity on iNKT cells (iNKT cells; in vitro): weak agonist; in vitro activity at modulating cytokines (iNKT cells): show in vitro activity

Which results are given for `CCCCCCCCCCCCCCCCCCCCCCCC(=O)N[C@@H](COC1OC(CO)C(O)C(O)C1O)[C@H](O)[C@H](O)CCCCC` (some centres unmarked) [OCH]?
IFNγ production in vivo (mice): failed to stimulate the strong production of interferon-γ; IL-4 production in vivo (mice): selective production of interleukin-4; suppression of autoimmunity in EAE [4]: enhanced ability to suppress autoimmunity

With `CCCCCCCCCCCCCC[C@@H](O)[C@@H](O)[C@H](COC1OC(CO)C(O)C(O)C1O)NC(=O)C(c1ccccc1)c1ccccc1` (some centres unmarked) [YTC03-17] as the compound, how does the “potency relative to KRN7000 (IL-2 production)” value (NK T hybridoma DN32.D3 [5]) read?
The value was “markedly more potent than KRN7000”.

What about the “potency relative to KRN7000 (IL-2 production)” value (NK T hybridoma DN32.D3 [6]) of the same compound?
The value was “presented about equally”.

What about the “response (IL-2 production)” value (NK T hybridoma DN32.D3 [7]) of the same compound?
Its value is “very little or no response at all”.

What about the “agonist activity on iNKT cells” value (iNKT cells; in vitro) of the same compound?
Its value is “strong agonist activity”.

And the “in vitro activity at modulating cytokines” value (iNKT cells)?
Its value is “show in vitro activity”.

And the effectiveness of compound (NK T cells)?
The effectiveness of compound was “Particularly effective”.
